Test results published in paper PMC4281101 (Journal of Medicinal Chemistry, 2014).
In brackets after ≈: the same amount, converted by molar mass.

Assays:
[1] = system: G-6-Pase mRNA expression in HepG2 cell; experiment: Cell-based assay for inhibition on the mRNA expression of G-6-Pase
[2] = system: PEPCK mRNA expression in HepG2 cell; experiment: Cell-based assay for inhibition on the mRNA expression of PEPCK
[3] = Stability in the mouse liver microsome; settings: for microsomal CLint at 0.5 μM: CD-1, mouse, liver microsomes, pH 7.4; for Clapp / Clh / Eh / k: CD-1 mouse liver microsomes
[4] = Pharmacokinetics analysis of 8r in SD rats; format: in vivo; settings: 5 mg/kg; for T1/2: SD rats
PDE9A2 (181–506) [5] = target: T1, PDE9A2 (181–506) (Homo sapiens, UniProt O76083); experiment: PDE enzymatic assay, PDE9A2 catalytic domain; format: biochemical
[6] = Solubility in simulated gastric/intestinal fluids; format: physicochemical; settings: simulated intestinal fluid, pH 6.8
KM mice = experiment: Acute toxicity in mice; format: in vivo
[7] = Pharmacokinetics analysis of 3r in CD-1 mice; format: in vivo; settings: 5 mg/kg
Pharmacokinetics of 28s = format: in vivo; settings: blood, po, 5 mg/kg
PDE9A2 (181–506) [8] = target: T1, PDE9A2 (181–506); settings: read-out: IC50 ± SD, PDE9A2 (181–506); 28s from previous report; cited from earlier work
[9] = HepG2 cell, cAMP/dexamethasone stimulation, 300 nM, in words
[10] = HepG2 cell-based assay, general statement

T1 sequence (O76083 241-566): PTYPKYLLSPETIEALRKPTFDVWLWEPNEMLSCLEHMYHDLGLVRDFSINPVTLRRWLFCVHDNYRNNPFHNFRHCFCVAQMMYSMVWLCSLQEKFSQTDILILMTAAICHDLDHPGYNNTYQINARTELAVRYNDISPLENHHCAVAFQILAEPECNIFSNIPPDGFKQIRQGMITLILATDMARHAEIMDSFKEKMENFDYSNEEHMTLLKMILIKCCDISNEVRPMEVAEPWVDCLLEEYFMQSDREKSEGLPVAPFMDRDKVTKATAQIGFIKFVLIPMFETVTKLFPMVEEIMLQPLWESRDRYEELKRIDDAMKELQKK

For insulin, the “mRNA expression of G-6-Pase” value [1, 9] was “to the basal level” and the “mRNA expression of PEPCK” value [2, 9] was “to the basal level”.

For `C[C@]12CC[C@H]3[C@@H](CCC4=CC(=O)CC[C@@]43C)[C@@H]1CC[C@@H]2O` [testosterone], the microsomal CLint at 0.5 μM [3] was 692 µL/min/mg, the Clapp [3] was 2725.1 mL min^–1 kg^–1 and the Clh [3] was 87.1 mL min^–1 kg^–1. It also gave an Eh [3] of 96.8% and a k [3] of 0.346.

In the case of `C[C@@H](Nc1nc2c(cnn2C2CCCC2)c(=O)[nH]1)C(=O)Nc1ccc(F)cc1` [Compound 8r, (R)-2-((1-Cyclopentyl-4-oxo-4,5-dihydro-1H-pyrazolo[3,4-d]pyrimidin-6-yl)amino)-N-(4-fluorophenyl)propanamide], the T1/2 ([4]; iv) is reported as 1.01 ± 0.09 h, the C0 ([4]; male, SD, rat, blood, iv) is reported as 19100 ± 428 ng/mL and the MRT inf ([4]; male, SD, rat, blood, iv) is reported as 0.59 ± 0.13 h. The Vd ([4]; male, SD, rat, blood, iv) was 2.58 ± 0.07 L/kg, the clearance ([4]; male, SD, rat, blood, iv) was 29.7 mL/min/kg and the Cmax ([4]; male, SD, rat, blood, po) was 135 ± 55 ng/mL. The MRT inf ([4]; male, SD, rat, blood, po) was 3.94 ± 1.11 h, the Tmax ([4]; male, SD, rat, blood, po) was 1 ± 0.87 h and the bioavailability ([4]; male, SD, rat, blood, po) was 18 ± 7%. It also gave a T1/2 ([4]; po) of 4.08 ± 1.00 h.

For `COc1ccc(NC(=O)[C@@H](C)Nc2nc3c(cnn3-c3ccccc3Cl)c(=O)[nH]2)cc1` [Compound 28r, (R)-2-((1-(2-Chlorophenyl)-4-hydroxy-1H-pyrazolo[3,4-d]pyrimidin-6-yl)amino)-N-(4-methoxyphenyl)propanamide], the Ki (PDE9A2 (181–506) [5]) was 5 nM.

Molecule `CC(=O)CC(c1ccccc1)c1c(O)c2ccccc2oc1=O` (stereo not drawn) [warfarin] has a Clapp [3] of 30.9 mL min^–1 kg^–1 and a Clh [3] of 23.0 mL min^–1 kg^–1.

In the case of `COc1ccc(NC(=O)[C@@H](C)Nc2nc3c(cnn3C3CCCC3)c(=O)[nH]2)cc1` [Compound 3r, (R)-2-((1-Cyclopentyl-4-hydroxy-1H-pyrazolo[3,4-d]pyrimidin-6-yl)amino)-N-(4-methoxyphenyl)propanamide], the solubility [6] is reported as 31 ± 4 µg/mL (≈ 78.2 µM), the “mRNA expression of glucose 6-phosphatase” value [1, 10] is reported as “inhibits the mRNA expression” and the “8-Br-cAMP/dexamethasone-induced expression of G-6-Pase” value ([1]; HepG2 cells, 10 nM, in words) is reported as “back to the basal level”. For the same molecule, the dose well tolerated (KM mice; single oral dose) was ≤ 1200 mg/kg, the acute toxicity (KM mice; single oral dose up to 1200 mg/kg) was “no acute toxicity” and the “abnormal behaviors, water/food consumption and body weight” value (KM mice; single oral doses 600 or 1200 mg/kg, 2 weeks) was “no abnormal behaviors and significant changes of water/food consumption and body weight were observed”. The T1/2 ([7]; iv, CD-1 mice) was 5.34 ± 1.43 h, the MRT inf ([7]; male, CD-1, mouse, blood, iv) was 1.08 ± 0.08 h and the Vd ([7]; male, CD-1, mouse, blood, iv) was 1.53 ± 0.15 L/kg. It also gave a clearance ([7]; male, CD-1, mouse, blood, iv) of 23.8 mL/min/kg, a C0 ([7]; male, CD-1, mouse, blood, iv, C0, iv, CD-1 mice) of 24500 ± 7520 ng/mL and a Cmax ([7]; male, CD-1, mouse, blood, po) of 217 ng/mL. It also gave an MRT inf ([7]; male, CD-1, mouse, blood, po) of 2.65 ± 0.82 h, a Tmax ([7]; male, CD-1, mouse, blood, po) of 0.58 ± 0.38 h and a bioavailability ([7]; male, CD-1, mouse, blood, po) of 9.8 ± 3.1%. The CL ([7]; po, CD-1 mice) was 14.6 ± 3.5 L h^–1 kg^–1, the T1/2 ([7]; po, CD-1 mice) was 1.67 ± 0.04 h and the Vss ([7]; po, CD-1 mice) was 35.0 ± 7.9 L/kg. The “mRNA expression of phosphoenolpyruvate carboxykinase” value [2, 10] was “inhibits the mRNA expression”, the “8-Br-cAMP/dexamethasone-induced expression of PEPCK” value ([2]; HepG2 cells, 10 nM, in words) was “back to the basal level” and the microsomal CLint at 0.5 μM [3] was 62 µL/min/mg. The Clapp [3] was 244.3 mL min^–1 kg^–1, the Clh [3] was 65.8 mL min^–1 kg^–1 and the Eh [3] was 73.1%. The k [3] was 0.03102.

In the case of `COc1ccc(NC(=O)[C@H](C)Nc2nc3c(cnn3-c3ccccc3Cl)c(=O)[nH]2)cc1` [Compound 28s], the Cmax (Pharmacokinetics of 28s) is given as 16 ng/mL, the Ki (PDE9A2 (181–506) [5]) is given as 16 nM and the IC50 (PDE9A2 (181–506) [8]) is given as 21 ± 5 nM.
